Among the data in PubChem BioAssay (NCI) are TGI values, retold here.

Holding throughout (assay): NCI tumour cell line growth inhibition, 48 h
Assay [1] relates to HOP-92 NSCLC.
For assay [2], the system named is K-562 leukemia.
Assay [3] deals with CCRF-CEM leukemia.
The test system of assay [4] is DU-145 prostate.
In assay [5] the test system is CAKI-1 renal.
Assay [6] has as its system UO-31 renal.
In assay [7] the test system is MALME-3M melanoma.
The subject of assay [8] is SK-MEL-5 melanoma.
Assay [9] concerns ACHN renal.
Assay [10] relates to SF-295 CNS.

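1) Cells in 96-well plates. 2) Compound, 48 h, 5 concentrations. 3) Linear interpolation between surrounding doses. 4) Unreached endpoint = highest concentration. Definition used: TGI = concentration required for complete inhibition of growth.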

Regarding `O=C1Nc2ccccc2/C1=c1\[nH]c(=O)/c(=C\c2ccc(OCc3ccccc3)cn2)[nH]c1=O`, the TGI in assay [1] is 76.8 µM; in assay [2], 75.9 µM; in [3], more than 100 µM; in [4] it was more than 100 µM; in [5] it was more than 100 µM; in [6] it was 0.848 µM. Moreover, the TGI is more than 100 µM in assay [7], more than 100 µM in [8], more than 100 µM in assay [9] and 50.5 µM in assay [10].
As to `O=C1C(CN2CCOCC2)CCCC1CN1CCOCC1` (stereo not given), the TGI in assay [1] was determined as 1.97 µM; in assay [2], 6.84 µM; in assay [3] it was 4.03 µM; in [4], 31.1 µM; in assay [5] it was 1.57 µM; in assay [6], 18.9 µM. Further, the TGI in [7] came to 2.04 µM; in assay [8], 23.9 µM; in assay [9], 3.53 µM; in assay [10], 50.5 µM.
With `O=[N+]([O-])c1ccc(O)c(/C=N/NC(=S)N2CCCCC2)c1`, the TGI in assay [1] is 33 µM; in assay [2], more than 100 µM; in assay [3], more than 82 µM; in assay [4] it was more than 52.5 µM; in assay [5], 34.4 µM; in assay [6], 4.58 µM. Also, the TGI in [7] stood at 10.3 µM; in [8], 21 µM; in assay [9], 6.97 µM; in [10] it was 28.7 µM.
For the compound `COc1ccccc1C[C@@H]1OC2(C=CC(=O)C=C2)O[C@H]1Cc1ccccc1OC`, the TGI was 20.1 µM in [1]; more than 50 µM in [2]; 8.6 µM in assay [3]; more than 50 µM in assay [4]; 29.7 µM in assay [5]; 12.7 µM in assay [6]. Besides, the TGI in [7] came out at 21.3 µM; in [8], 16.1 µM; in [9], 17.7 µM; in assay [10] it was 22.9 µM.
Turning to `C[N+]1(CCN[N+]2(C)CCCCC2)CCc2ccccc2C1` (stereo not given), the TGI in assay [1], in assay [2], in assay [3], in assay [4], in [5] and in assay [6] was more than 100 µM throughout. Moreover, the TGI in assay [7], in [8], in assay [9] and in assay [10] was more than 100 µM in each case.
`CCOC(=O)Cc1nc2c(N)ncnc2n1C1OC(COC(C)=O)C(OC(C)=O)C1OC(C)=O` (stereo not given): the TGI in [1], in assay [2], in assay [3], in [4], in assay [5] and in assay [6] was more than 100 µM in each case. Also, the TGI in [7], in assay [8], in assay [9] and in assay [10] was more than 100 µM each time.
As to `CC1CC(=O)N(N(C)C)C(C#N)(C#N)C1(C#N)C#N` (stereo not given), the TGI in [1] was 26 µM; in assay [2], more than 66.3 µM; in assay [3], 4.8 µM; in assay [4], 32.5 µM; in assay [5], 5.23 µM; in [6] it was 31.3 µM. The TGI was 29.3 µM in [7], 47 µM in [8], 29.3 µM in assay [9] and more than 77.4 µM in assay [10].
Turning to `O=C(CCc1ccccc1)ON1C(=S)C(c2ccccc2)(c2ccccc2)N=C1Sc1ccccc1`, the TGI in assay [1], in assay [2], in [3], in assay [4], in assay [5] and in assay [6] was more than 100 µM in each case. For the same compound, the TGI in [7], in [8], in assay [9] and in [10] was more than 100 µM each time.
`CC(=O)Oc1ccc(/C=C/C(=O)O[C@@H](C(=O)O)[C@@H](OC(=O)/C=C/c2ccc(OC(C)=O)c(OC(C)=O)c2)C(=O)O)cc1OC(C)=O`: the TGI in assay [1], in assay [2], in assay [3], in [4], in [5] and in assay [6] was more than 100 µM throughout. The TGI in assay [7], in assay [8], in [9] and in [10] was more than 100 µM throughout.
On to `CCOC(=O)C1=C(C)N(c2ccc(OC)cc2)C2(O)C=CC(=O)C3=C(O)c4ccccc4C(=O)C312` (stereo not given), for which the TGI in assay [1] was 9.75 µM; in assay [2], 39.5 µM; in assay [3], 15.9 µM; in assay [4], 28.4 µM; in [5], 26.5 µM; in assay [6], 31 µM. In addition, the TGI in assay [7] stood at 1.17 µM; in assay [8] it was 24.6 µM; in [9], 39.3 µM; in assay [10], 29.3 µM.
Regarding `C(=C\N1CCCCC1)/c1nnnn1-c1ccccc1`, the TGI in assay [1] is more than 100 µM; in [2], more than 100 µM; in [3], 61.1 µM; in assay [4], more than 100 µM; in [5] it was 38.2 µM; in assay [6] it was more than 100 µM. Further, the TGI was more than 100 µM in [7], 58.9 µM in assay [8], more than 100 µM in [9] and 66.9 µM in [10].
